Measurements reported in PMC5218480 (PLoS ONE, 2017).

System: MV-4-11 cells
Assay: Gene expression microarray analysis (Affymetrix PrimeView) and GSEA
Type: cell-based, human
Design: RFU PODN (11730768_x_at) / Fold change /veh PODN (11730768_x_at) / RFU LINC00158 (11744669_a_at) / Fold change /veh LINC00158 (11744669_a_at) / RFU DUSP10 (11751237_a_at) / Fold change /veh DUSP10 (11751237_a_at) / RFU ID3 (11757404_x_at) / Fold change /veh ID3 (11757404_x_at) / RFU PLEKHG5 (11737974_s_at) / Fold change /veh PLEKHG5 (11737974_s_at) / RFU LRRC4B (11730491_at) / Fold change /veh LRRC4B (11730491_at) / RFU GIMAP4 (11747438_a_at) / Fold change /veh GIMAP4 (11747438_a_at) / RFU KRT8 (11758183_x_at) / Fold change /veh KRT8 (11758183_x_at) / RFU CNN1 (11734310_a_at) / Fold change /veh CNN1 (11734310_a_at) / RFU VPS37D (11726825_at) / Fold change /veh VPS37D (11726825_at) / RFU C10orf10 (11716522_x_at) / Fold change /veh C10orf10 (11716522_x_at) / RFU KIR2DL2 /// KIR2DL4 /// KIR2DL5A /// KIR2DL5B /// KIR2DS1 /// KIR2DS2 /// KIR2DS3 /// KIR2DS4 /// KIR3DL3 /// KIR3DL3 /// KIR3DS1 (11738374_at) / Fold change /veh KIR2DL2 /// KIR2DL4 /// KIR2DL5A /// KIR2DL5B /// KIR2DS1 /// KIR2DS2 /// KIR2DS3 /// KIR2DS4 /// KIR3DL3 /// KIR3DL3 /// KIR3DS1 (11738374_at) / RFU C1QL1 (11718748_at) / Fold change /veh C1QL1 (11718748_at) / RFU TMPRSS4 (11747572_a_at) / Fold change /veh TMPRSS4 (11747572_a_at) / RFU HAMP (11756126_x_at) / Fold change /veh HAMP (11756126_x_at) / RFU RNFT2 (11725882_a_at) / Fold change /veh RNFT2 (11725882_a_at) / RFU NR4A2 (11747474_a_at) / Fold change /veh NR4A2 (11747474_a_at) / RFU ABCC12 (11746883_a_at) / Fold change /veh ABCC12 (11746883_a_at) / RFU TMEM136 (11760407_x_at) / Fold change /veh TMEM136 (11760407_x_at) / RFU CLDN22 /// WWC2 (11732394_at) / Fold change /veh CLDN22 /// WWC2 (11732394_at) / RFU HLA-DPB1 (11760878_x_at) / Fold change /veh HLA-DPB1 (11760878_x_at) / RFU SPINT1 (11716480_a_at) / Fold change /veh SPINT1 (11716480_a_at) / RFU GAP43 (11754022_s_at) / Fold change /veh GAP43 (11754022_s_at) / RFU A4GNT (11735810_at) / Fold change /veh A4GNT (11735810_at) / RFU PRB3 (11715151_x_at) / Fold change /veh PRB3 (11715151_x_at) / RFU TUBB4B (11761932_at) / Fold change /veh TUBB4B (11761932_at) / RFU CAPN14 (11732068_a_at) / Fold change /veh CAPN14 (11732068_a_at) / RFU TMCC2 (11721928_a_at) / Fold change /veh TMCC2 (11721928_a_at) / RFU IRGQ (11745062_a_at) / Fold change /veh IRGQ (11745062_a_at) / RFU FAM174B (11720279_a_at) / Fold change /veh FAM174B (11720279_a_at) / RFU TMPRSS4 (11748680_a_at) / Fold change /veh TMPRSS4 (11748680_a_at) / RFU FAM212B (11763350_a_at) / Fold change /veh FAM212B (11763350_a_at) / RFU PLEKHG5 (11743358_a_at) / Fold change /veh PLEKHG5 (11743358_a_at) / RFU ZSCAN30 (11745921_a_at) / Fold change /veh ZSCAN30 (11745921_a_at) / RFU CMKLR1 (11741424_a_at) / Fold change /veh CMKLR1 (11741424_a_at) / RFU LOC101060620 /// MAPK8IP1 (11723275_at) / Fold change /veh LOC101060620 /// MAPK8IP1 (11723275_at) / RFU SPTSSB (11747773_x_at) / Fold change /veh SPTSSB (11747773_x_at) / RFU PRSS12 (11739890_at) / Fold change /veh PRSS12 (11739890_at) / RFU BIN1 (11741810_x_at) / Fold change /veh BIN1 (11741810_x_at) / RFU WNT11 (11732464_a_at) / Fold change /veh WNT11 (11732464_a_at) / RFU C10orf10 (11716521_a_at) / Fold change /veh C10orf10 (11716521_a_at) / RFU C5orf56 (11738089_at) / Fold change /veh C5orf56 (11738089_at) / RFU CYB561 (11721691_x_at) / Fold change /veh CYB561 (11721691_x_at) / RFU ANKRD19P (11752326_a_at) / Fold change /veh ANKRD19P (11752326_a_at) / RFU OR2T12 /// OR2T33 /// OR2T8 (11738714_s_at) / Fold change /veh OR2T12 /// OR2T33 /// OR2T8 (11738714_s_at) / RFU VCAN (11748164_a_at) / Fold change /veh VCAN (11748164_a_at) / RFU JSRP1 (11732532_at) / Fold change /veh JSRP1 (11732532_at) / RFU KRTAP10-11 (11738290_x_at) / Fold change /veh KRTAP10-11 (11738290_x_at) / RFU MYO3A (11730013_a_at) / Fold change /veh MYO3A (11730013_a_at) / RFU EBF3 (11725865_a_at) / Fold change /veh EBF3 (11725865_a_at) / RFU CAMK2N1 (11719241_x_at) / Fold change /veh CAMK2N1 (11719241_x_at) / RFU C5orf56 (11738088_a_at) / Fold change /veh C5orf56 (11738088_a_at) / RFU OLFML3 (11715873_a_at) / Fold change /veh OLFML3 (11715873_a_at) / RFU LOC100653217 /// NTM (11731650_a_at) / Fold change /veh LOC100653217 /// NTM (11731650_a_at) / RFU MAPK11 (11762145_a_at) / Fold change /veh MAPK11 (11762145_a_at) / RFU FIZ1 (11724087_x_at) / Fold change /veh FIZ1 (11724087_x_at) / RFU OASL (11726364_x_at) / Fold change /veh OASL (11726364_x_at) / RFU SOX15 (11748057_x_at) / Fold change /veh SOX15 (11748057_x_at) / RFU CD79A (11719716_a_at) / Fold change /veh CD79A (11719716_a_at) / RFU HIST1H1D (11736915_at) / Fold change /veh HIST1H1D (11736915_at) / RFU CASKIN2 (11723855_a_at) / Fold change /veh CASKIN2 (11723855_a_at) / RFU LOC730098 (11760151_x_at) / Fold change /veh LOC730098 (11760151_x_at) / RFU OR4N2 (11742367_at) / Fold change /veh OR4N2 (11742367_at) / RFU PRRT2 (11749266_a_at) / Fold change /veh PRRT2 (11749266_a_at) / RFU SNX32 (11753110_a_at) / Fold change /veh SNX32 (11753110_a_at) / RFU CDHR5 (11726645_a_at) / Fold change /veh CDHR5 (11726645_a_at) / RFU RCAN1 (11760418_a_at) / Fold change /veh RCAN1 (11760418_a_at) / RFU FAM167A (11723789_a_at) / Fold change /veh FAM167A (11723789_a_at) / RFU FAM26E (11764081_at) / Fold change /veh FAM26E (11764081_at) / RFU ISYNA1 (11749810_s_at) / Fold change /veh ISYNA1 (11749810_s_at) / RFU ACY1 (11761880_at) / Fold change /veh ACY1 (11761880_at) / RFU 11764098_at / Fold change /veh 11764098_at / RFU SAMD14 (11745864_x_at) / Fold change /veh SAMD14 (11745864_x_at) / RFU NPB (11741838_a_at) / Fold change /veh NPB (11741838_a_at) / RFU TMPRSS6 (11731388_a_at) / Fold change /veh TMPRSS6 (11731388_a_at) / RFU KRTAP10-2 (11738614_at) / Fold change /veh KRTAP10-2 (11738614_at) / RFU ARHGAP8 /// PRR5-ARHGAP8 (11727945_x_at) / Fold change /veh ARHGAP8 /// PRR5-ARHGAP8 (11727945_x_at) / RFU KRTAP5-7 /// NADSYN1 (11734609_at) / Fold change /veh KRTAP5-7 /// NADSYN1 (11734609_at) / RFU RASL12 (11751679_a_at) / Fold change /veh RASL12 (11751679_a_at) / RFU CDKN2B (11736163_a_at) / Fold change /veh CDKN2B (11736163_a_at) / RFU PRF1 (11729649_at) / Fold change /veh PRF1 (11729649_at) / RFU, ZNF638 /// ZNF638-IT1 / Fold change vs veh, ZNF638 /// ZNF638-IT1 / RFU, PANK3 / Fold change vs veh, PANK3 / RFU, SH3YL1 / Fold change vs veh, SH3YL1 / RFU, ZEB2 / Fold change vs veh, ZEB2 / RFU, NRIP1 / Fold change vs veh, NRIP1 / RFU, PTTG1IP / Fold change vs veh, PTTG1IP / RFU, CAPN2 / Fold change vs veh, CAPN2 / RFU, MED14 / Fold change vs veh, MED14 / RFU, SNORA58 / Fold change vs veh, SNORA58 / RFU, C1orf63 / Fold change vs veh, C1orf63 / RFU, LRRFIP1 / Fold change vs veh, LRRFIP1 / RFU, NDUFAF7 / Fold change vs veh, NDUFAF7 / RFU, SLC12A2 / Fold change vs veh, SLC12A2 / RFU, IBTK / Fold change vs veh, IBTK / RFU, ESF1 / Fold change vs veh, ESF1 / Fold change vs veh, TMEM50B / RFU, TAOK1 / Fold change vs veh, TAOK1 / RFU, ACBD3 / Fold change vs veh, ACBD3 / RFU, TMA16 / Fold change vs veh, TMA16 / RFU, RWDD3 / Fold change vs veh, RWDD3 / RFU, BCAT1 / Fold change vs veh, BCAT1 / RFU, EDEM3 / Fold change vs veh, EDEM3 / RFU, TMEM33 / Fold change vs veh, TMEM33 / RFU, WDR75 / Fold change vs veh, WDR75 / RFU, AHCTF1 / Fold change vs veh, AHCTF1 / RFU, TFRC / Fold change vs veh, TFRC / RFU, ZDHHC17 / Fold change vs veh, ZDHHC17 / RFU, NOM1 / Fold change vs veh, NOM1 / RFU, ARL8B / Fold change vs veh, ARL8B / RFU, ZBTB11 / Fold change vs veh, ZBTB11 / RFU, TAMM41 / Fold change vs veh, TAMM41 / RFU, KIAA1704 /// LOC100996395 / Fold change vs veh, KIAA1704 /// LOC100996395 / RFU, ING1 / Fold change vs veh, ING1 / RFU, TRMT61B / Fold change vs veh, TRMT61B / RFU, FUBP3 / Fold change vs veh, FUBP3 / RFU, TP53 / Fold change vs veh, TP53 / RFU, TNKS2 / Fold change vs veh, TNKS2 / RFU, ZFP14 / Fold change vs veh, ZFP14 / RFU, ACTR2 / Fold change vs veh, ACTR2 / RFU, PPP3R1 / Fold change vs veh, PPP3R1 / RFU, PIK3R1 / Fold change vs veh, PIK3R1 / RFU, HNRNPA1 / Fold change vs veh, HNRNPA1 / RFU, RNF170 / Fold change vs veh, RNF170 / RFU, ZNF28 / Fold change vs veh, ZNF28 / RFU, RNGTT / Fold change vs veh, RNGTT / RFU, OGT / Fold change vs veh, OGT / RFU, BRD1 / Fold change vs veh, BRD1 / RFU, MARS / Fold change vs veh, MARS / RFU, ZNF655 / Fold change vs veh, ZNF655 / RFU, FAHD1 / Fold change vs veh, FAHD1 / RFU, BDP1 / Fold change vs veh, BDP1 / RFU, LRRCC1 / Fold change vs veh, LRRCC1 / RFU, ARID1A / Fold change vs veh, ARID1A / RFU, ZNF146 / Fold change vs veh, ZNF146 / RFU, ZNF330 / Fold change vs veh, ZNF330 / RFU, GPN3 / Fold change vs veh, GPN3 / RFU, C9orf123 / Fold change vs veh, C9orf123 / RFU, N4BP2L2 / Fold change vs veh, N4BP2L2 / RFU, ARFIP1 / Fold change vs veh, ARFIP1 / RFU, FAM179B / Fold change vs veh, FAM179B / RFU, BCL10 / Fold change vs veh, BCL10 / RFU, UHRF1BP1L / Fold change vs veh, UHRF1BP1L / RFU, BET1 / Fold change vs veh, BET1 / RFU, CNOT2 / Fold change vs veh, CNOT2 / RFU, ZNF268 / Fold change vs veh, ZNF268 / Fold change vs veh, ZNF507 / RFU, DGCR2 / Fold change vs veh, DGCR2 / RFU, WDSUB1 / Fold change vs veh, WDSUB1 / Fold change vs veh, HSP90B1 /// MIR3652 / RFU, ADSS / Fold change vs veh, ADSS / RFU, GK / Fold change vs veh, GK / RFU, ZNF148 / Fold change vs veh, ZNF148 / RFU, TAF9 / Fold change vs veh, TAF9 / RFU, SLC1A5 / Fold change vs veh, SLC1A5 / RFU, SLMO2 / Fold change vs veh, SLMO2 / RFU, ABCC4 / Fold change vs veh, ABCC4 / RFU, LOC101060439 /// RAP1B / Fold change vs veh, LOC101060439 /// RAP1B / RFU, RFX7 / Fold change vs veh, RFX7 / RFU, GTPBP10 / Fold change vs veh, GTPBP10 / RFU, CNEP1R1 / Fold change vs veh, CNEP1R1 / RFU, BIVM-ERCC5 /// ERCC5 / Fold change vs veh, BIVM-ERCC5 /// ERCC5 / RFU, ILF3 / Fold change vs veh, ILF3 / RFU 11762660_at / Fold change /veh 11762660_at / RFU VCAN (11757783_s_at) / Fold change /veh VCAN (11757783_s_at) / RFU DDX43 (11728927_at) / Fold change /veh DDX43 (11728927_at) / RFU KRT8 (11758188_x_at) / Fold change /veh KRT8 (11758188_x_at) / RFU NKD1 (11759106_at) / Fold change /veh NKD1 (11759106_at) / RFU SRD5A1 (11742802_a_at) / Fold change /veh SRD5A1 (11742802_a_at) / RFU TPSAB1 /// TPSB2 (11721975_s_at) / Fold change /veh TPSAB1 /// TPSB2 (11721975_s_at) / RFU GSTM3 (11746129_a_at) / Fold change /veh GSTM3 (11746129_a_at) / RFU IL23R (11737362_x_at) / Fold change /veh IL23R (11737362_x_at) / RFU TMEM51 (11727254_a_at) / Fold change /veh TMEM51 (11727254_a_at) / RFU PIWIL2 (11732686_x_at) / Fold change /veh PIWIL2 (11732686_x_at) / RFU ORM1 (11744905_x_at) / Fold change /veh ORM1 (11744905_x_at) / RFU CCDC152 (11743942_at) / Fold change /veh CCDC152 (11743942_at) / RFU ECM1 (11717891_a_at) / Fold change /veh ECM1 (11717891_a_at) / RFU IL23R (11748794_a_at) / Fold change /veh IL23R (11748794_a_at) / RFU TNFAIP8L3 (11732012_x_at) / Fold change /veh TNFAIP8L3 (11732012_x_at) / RFU MBOAT4 (11741988_at) / Fold change /veh MBOAT4 (11741988_at) / RFU 11764193_at / Fold change /veh 11764193_at / RFU TMEM53 (11763286_at) / Fold change /veh TMEM53 (11763286_at) / RFU MAGEB2 (11727129_at) / Fold change /veh MAGEB2 (11727129_at) / RFU TMEM200A (11744735_a_at) / Fold change /veh TMEM200A (11744735_a_at) / RFU CCDC152 (11751479_a_at) / Fold change /veh CCDC152 (11751479_a_at) / RFU FAM211A (11726209_a_at) / Fold change /veh FAM211A (11726209_a_at) / RFU RGS16 (11746705_a_at) / Fold change /veh RGS16 (11746705_a_at) / RFU VCAN (11755009_s_at) / Fold change /veh VCAN (11755009_s_at) / RFU RHOB (11743442_s_at) / Fold change /veh RHOB (11743442_s_at) / RFU RGS16 (11720943_a_at) / Fold change /veh RGS16 (11720943_a_at) / RFU RGS16 (11720944_at) / Fold change /veh RGS16 (11720944_at) / RFU, VPS4B / Fold change vs veh, VPS4B / RFU, CREB1 / Fold change vs veh, CREB1 / RFU, DNAJC13 / Fold change vs veh, DNAJC13 / RFU, GNAQ / Fold change vs veh, GNAQ / RFU, CDK5R1 / Fold change vs veh, CDK5R1 / RFU, ZRANB3 / Fold change vs veh, ZRANB3 / RFU, CUL4A / Fold change vs veh, CUL4A / RFU, CCNY / Fold change vs veh, CCNY / RFU, UFL1 / Fold change vs veh, UFL1 / RFU, COG3 / Fold change vs veh, COG3 / RFU, DIAPH2 / Fold change vs veh, DIAPH2 / RFU, SKA2 / Fold change vs veh, SKA2 / RFU, AFF3 / Fold change vs veh, AFF3 / RFU, LMF1 / Fold change vs veh, LMF1 / RFU, IPO11 / Fold change vs veh, IPO11 / RFU, DFFB / Fold change vs veh, DFFB / RFU, FOXP1 / Fold change vs veh, FOXP1 / RFU, CARD8 / Fold change vs veh, CARD8 / RFU, STRN3 / Fold change vs veh, STRN3 / RFU, ADK / Fold change vs veh, ADK / RFU, RASSF2 / Fold change vs veh, RASSF2 / RFU, WIPF1 / Fold change vs veh, WIPF1 / RFU, LARP1B / Fold change vs veh, LARP1B / RFU, RASA1 / Fold change vs veh, RASA1 / RFU, RB1 / Fold change vs veh, RB1 / RFU, PPFIA1 / Fold change vs veh, PPFIA1 / RFU, MAT2A / Fold change vs veh, MAT2A / RFU, CCT5 / Fold change vs veh, CCT5 / RFU, WDR92 / Fold change vs veh, WDR92 / RFU, CUX1 / Fold change vs veh, CUX1 / RFU, TTC7A / Fold change vs veh, TTC7A / RFU, TMEM135 / Fold change vs veh, TMEM135 / RFU, DEPTOR / Fold change vs veh, DEPTOR / RFU, CPM / Fold change vs veh, CPM / RFU, DNAJB6 / Fold change vs veh, DNAJB6 / RFU, CACNA2D3 / Fold change vs veh, CACNA2D3 / RFU, DTX4 / Fold change vs veh, DTX4 / RFU, TFCP2 / Fold change vs veh, TFCP2 / RFU, GMCL1 /// GMCL1P1 / Fold change vs veh, GMCL1 /// GMCL1P1 / RFU, AEBP2 / Fold change vs veh, AEBP2 / RFU, SNHG1 /// SNORD22 /// SNORD25 /// SNORD26 /// SNORD27 /// SNORD28 /// SNORD29 /// SNORD31 / Fold change vs veh, SNHG1 /// SNORD22 /// SNORD25 /// SNORD26 /// SNORD27 /// SNORD28 /// SNORD29 /// SNORD31 / Fold change (Aza/veh), C12orf56 (ProbeSet 11735607_a_at) / Fold change (ACY-1035/veh), C12orf56 (ProbeSet 11735607_a_at) / Fold change (Aza/veh), FGFR1OP (ProbeSet 11751329_s_at) / Fold change (ACY-1035/veh), FGFR1OP (ProbeSet 11751329_s_at) / Fold change (Aza/veh), VPS36 (ProbeSet 11739960_a_at) / Fold change (ACY-1035/veh), VPS36 (ProbeSet 11739960_a_at) / RFU SYPL1 (11715823_x_at) / Fold change /veh SYPL1 (11715823_x_at) / RFU IGFBP7 (11715501_s_at) / Fold change /veh IGFBP7 (11715501_s_at) / RFU REEP3 (11722064_at) / Fold change /veh REEP3 (11722064_at) / RFU IGLL1 (11728026_x_at) / Fold change /veh IGLL1 (11728026_x_at): dose or concentration left out as unconfirmed
Conditions: ProbeSet 11747937_a_at; LIST D

## Nc1ncn([C@@H]2O[C@H](CO)[C@@H](O)[C@H]2O)c(=O)n1 [azacitidine]
  RFU, DNAJB6: 212.79 RFU
